In brackets after ≈: the same amount, converted by molar mass. Activity calls are given as the source filed them. No cut-off for these calls is given here.
Experiments:
[1] = tested on: Helicobacter pylori; assay: Anti-bacterial activity against Helicobacter pylori; assay type: functional
[2] = tested on: Bacillus subtilis; assay: Anti-microbial activity against gram-positive bacteria Bacillus subtilis at 625 ug/mL concentration; Inactive; assay type: functional, organism-based
[3] = tested on: Bacteroides fragilis; assay: Anti-microbial activity against gram-positive bacteria Bacteroides fragilis at 625 ug/mL concentration; Inactive; assay type: functional, organism-based
[4] = tested on: Candida albicans; assay: Anti-microbial activity against yeast candida albicans at 625 ug/mL concentration; Inactive; assay type: functional, organism-based
[5] = tested on: Escherichia coli; assay: Anti-microbial activity against gram-negative bacteria Escherichia coli at 625 ug/mL concentration; Inactive; assay type: functional, organism-based
[6] = tested on: Micrococcus luteus; assay: Anti-microbial activity against gram-positive bacteria Micrococcus lutea at 625 ug/mL concentration; Inactive; assay type: functional, organism-based
[7] = tested on: Pseudomonas aeruginosa; assay: Anti-microbial activity against gram-negative bacteria Pseudomonas aeruginosa at 625 ug/mL concentration; Inactive; assay type: functional, organism-based
[8] = tested on: Saccharomyces cerevisiae; assay: Anti-microbial activity against yeast Saccharomyces cerevisiae at 625 ug/mL concentration; Inactive; assay type: functional, organism-based

| Structure (SMILES) | MIC [1] [µg/mL] | other results |
| --- | --- | --- |
| COc1ccc2c(c1)OCC(c1ccc(OC)c(OC)c1)C2=O (stereo not given) | > 20 |  |
| O=c1c(-c2ccc(O)c(O)c2)coc2cc(O)ccc12 | > 20 |  |
| O=c1ccoc2ccccc12 [CHROMONE] | > 20 |  |
| COc1ccc(-c2coc3cc(OC)cc(OC)c3c2=O)cc1 [BIOCHANIN A, DIMETHYL ETHER] | > 20 |  |
| COc1ccc(-c2coc3cc(OC)ccc3c2=O)cc1 | > 20 |  |
| COc1ccc(-c2coc3cc(OC)c(OC)cc3c2=O)cc1 | > 20 |  |

More lines, main results first:

| MIC [1] [µg/mL] | Structure (SMILES) | other results |
| --- | --- | --- |
| > 20 | COc1ccc2c(=O)cc(-c3ccc(OC)c(OC)c3)oc2c1 [7,3',4'-Trimethoxyflavone] |  |
| > 20 | COc1ccc(CC(=O)c2ccc(OC)cc2)cc1 |  |
| > 20 | COc1ccc(C)cc1OC |  |
| 18 (≈ 50.8 µM) | CCOc1ccc2c(=O)c(-c3ccc(OCC)c(OCC)c3)coc2c1 |  |
| 16 (≈ 50.9 µM) | COc1ccc2c(c1)OC=C(c1ccc(OC)c(OC)c1)[C@H]2O |  |
| 16 (≈ 50.9 µM) | COc1ccc2c(c1)OC=C(c1ccc(OC)c(OC)c1)[C@@H]2O |  |
| 7.8 (≈ 25 µM) | COc1ccc2c(=O)c(-c3ccc(OC)c(OC)c3)coc2c1 | Activity [2]: inactive; Activity [3]: inactive; Activity [4]: inactive; Activity [5]: inactive; Activity [6]: inactive; Activity [7]: inactive; Activity [8]: inactive |

From ChEMBL document CHEMBL1132162, “Microanalysis of a selective potent anti-Helicobacter pylori compound in a Brazilian medicinal plant, Myroxylon peruiferum and the activity of analogues” (1999)
